Assay results reported in PMC7892644 (Cancer discovery, 2020).
Like-named read-outs stand apart in the source and are kept apart here.

How the values were obtained:
[1] = test system: recombinant SOS1 and recombinant KRAS G12D; experiment: AlphaScreen protein-protein interaction assay, SOS1 and KRAS G12D; type: binding; settings: KRAS-GDP, result in words
[2] = test system: recombinant SOS1 and recombinant KRAS G12C; experiment: AlphaScreen protein-protein interaction assay, SOS1 and KRAS G12C; type: binding; settings: KRAS-GDP, result in words
[3] = test system: panel of 24 cell lines, including 18 KRAS-mutated cell lines; experiment: 2D proliferation assays across a panel of 24 cell lines; type: cell-based
[4] = test system: A375 cells (KRAS wild-type, BRAF V600E); experiment: 3D proliferation assay, A375; type: cell-based
[5] = test system: KRAS Q61K mutant pancreatic PDX model; experiment: KRAS Q61K mutant pancreatic PDX model efficacy; type: in vivo, mice; settings: BI-3406 50 mg/kg bid, trametinib 0.1 mg/kg bid, 5 days on/2 days off
[6] = test system: retinal pigment epithelial cells; experiment: Proliferation of retinal pigment epithelial cells; type: cell-based; settings: Epithelial cell, read-out: IC50, proliferation
[7] = test system: KRAS G12C-mutated MIA PaCa-2 xenografts; settings: 12 or 50 mg/kg twice daily; p<0.005 vs vehicle control
[8] = test system: pERK levels in A375 melanoma cells (KRAS wild-type, BRAF V600E); experiment: pERK inhibition in A375 cells; type: cell-based; settings: A375, 1 hour, 2D
[9] = test system: NCI-H520 cells (KRAS wild-type); experiment: 3D proliferation assay, NCI-H520; type: cell-based
[10] = test system: primary smooth muscle cells; experiment: Proliferation of primary smooth muscle cells; type: cell-based; settings: read-out: IC50, proliferation
[11] = test system: pERK levels in isogenic NCI-H23 cell lines; experiment: pERK levels in isogenic NCI-H23 cell lines
[12] = test system: panel of 24 cell lines, including 18 KRAS-mutated cell lines; experiment: 3D proliferation assays across a panel of 24 cell lines; type: cell-based; settings: for IC50: read-out: IC50, 3D proliferation
foreskin fibroblasts = experiment: cells; settings: Fibroblast, read-out: IC50, proliferation

C=CC(=O)N1CCN(c2ncnc3c(F)c(-c4c(O)cccc4F)c(Cl)cc23)CC1 [ARS-1620]
inhibition of SOS1 interaction with KRAS G12D [1]: no effect
inhibition of SOS1 interaction with KRAS G12C [2]: able to interfere

CNCc1ccccc1-c1csc([C@@H](C)Nc2nc(C)nc3cc(OC)c(OC)cc23)c1 [BAY293]
activity in 2D proliferation assays [3]: no activity

COc1cc2nc(C)nc(N[C@H](C)c3cc(N)cc(C(F)(F)F)c3)c2cc1O[C@H]1CCOC1 [BI-3406]
effect on 3D growth [4]: not appreciably affected
antitumor efficacy [5]: only weak efficacy
IC50 [6]: > 5000 nM
tumor growth inhibition [7]: prolonged dose-dependent tumor growth inhibition
pERK modulation [8]: No pERK modulation
effect on 3D growth [9]: not appreciably affected
activity in 2D proliferation assays [3]: no activity
IC50 [10]: > 5000 nM
modulation of pERK ([11]; NCI-H23 cells carrying the G12R variant): No modulation
inhibition of pERK levels ([11]; NCI-H23 cells carrying the Q61H oncogenic variant): weak inhibition
reduction of pERK levels ([11]; all KRAS variant isogenic NCI-H23 cell lines, independent of zygosity): ~50%
IC50 [12]: 9 to 220 nM

CC1(N)CCN(c2cnc(-c3cccc(Cl)c3Cl)c(N)n2)CC1 [SHP099]
activity in 2D proliferation assays [3]: no activity
effect in 3D proliferation ([12]; Q61L/H and G12R KRAS mutant tumor cells): no effects were detectable
IC50 ([12]; KRAS G12C, a subset of G12D cell lines, and one G12S cell line): 167 to 790 nM
IC50 ([12]; KRAS G13D and G12V cells): 1180 to 4410 nM

Cc1[nH]c2ccccc2c1CCNCc1ccc(/C=C/C(=O)NO)cc1 [panobinostat]
effect on 3D growth [4]: responded
effect on 3D growth [9]: responded

CC(=O)Nc1cccc(-n2c(=O)n(C3CC3)c(=O)c3c(Nc4ccc(I)cc4F)n(C)c(=O)c(C)c32)c1 [trametinib]
IC50 [6]: 12 nM
IC50 (foreskin fibroblasts): 85 nM
IC50 [10]: 843 nM
